Test results from paper PMC13195669, “GPR3 Ligands Discovered through Combined Virtual and Conformational Biosensor-Based Screening” (Journal of the American Chemical Society, 2026).

Biological target: T1, GPR3 (Homo sapiens, UniProt P46089, INS231ASEIGTGFPFDPHYVEVLGERMHYVDVGPRDGTPVLFLHGNPTSSYVWRNIIPHVAPTHRCIAPDLIGMGKSDKPDLGYFFDDHVRFMDAFIEALGLEEVVLVIHDWGSALGFHWAKRNPERVKGIAFMEFIRPIPTWDEWPEFARETFQAFRTTDVGRKLIIDQNVFIEGTLPMGVVRPLTEVEMDHYREPFLNPVDREPLWRFPNELPIAGEPANIVALVEEYMDWLHQSPVPKLLFWGTPGVLIPPAEAARLAKSLPNCKAVDIGPGLNLLQEDNPDLIGSEIARWLSTLEISGGS)
T1 construct: ligated to the full-length C-terminus; expressed in transfected cells; some experiments transient
Assay: BRET-based conformational GPR3 biosensor (GPR3-HaloTag/Nluc) in HEK293A cells
Type: cell-based
Conditions: for EC50: HEK293A cells stably expressing the biosensor, read-out: EC50 at GPR3-HaloTag/Nluc
From the text: To develop a conformational GPR3 biosensor that can be used in a microtiter well plate format, we employed the intramolecular BRET design previously validated for several GPCRs. − The BRET donor NanoLuc was fused to the receptor’s full-length C-terminus and the self-labeling protein tag, HaloTag, was inserted into GPR3′s third intracellular loop between amino acids Arg231 and His232 (Figure a; sequence in Figure S1). […]
Plasmids and molecular cloning […]
Plasmids encoding the conformational biosensors α2AAR- and β2AR-HaloTag/Nluc9 and the Gs heterotrimer dissociation sensor10 were previously described. The expression plasmid encoding N-terminally HA-tagged GPR3 (cat. no.
#GPR003TN00) on a pcDNA3.1+ vector was obtained from the cDNA resource center (cdna.org). The Nluc and HaloTag in-serts were amplified with overhanging restriction sites from β2AAR- HaloTag/Nluc and ligated to the full-length C-terminus or inserted into icl3 of GPR3, respectively, to obtain the conformational biosensor GPR3-HaloTag/Nluc. Point mutants of GPR3-HaloTag/Nluc were generated using the GeneArt Site-directed Mutagenesis System (Thermo Fisher Scientific). All con-structs were verified by sequencing (Eurofins genomics). […]
serum albumin (BSA) were obtained from Sigma Aldrich (Merck KGaA). Dulbecco's Modified Eagle's Medium (DMEM), Dul- […]
Diphenyleneiodonium chloride (DPI) and AF64394 were purchased from Tocris (Bio -Techne). The TMB (3, 3', 5, 5' tetramethyl benzidine) substrate reagent set was […]
were obtained in a single kit from Promega (cat. no. N1662). D-luciferin-sodium and the S1PR1 agonist III were from Med-ChemExpress. The Rluc substrate coelenterazine 400a was from NanoLight Technology (cat. no. 340 -10). White -wall, white - bottomed 96 -well, black -wall, black bottomed and transparent 96 -well microtiter plates were from Brand.
HEK293A cells were used for transient transfection and grown in Dulbecco’s modified Eagle’s medium (DMEM) supplemented with 2 mM glutamine, 10 % fetal calf serum, streptomycin (0.1 mg/mL), and penicillin (100 U/mL) at 37 °C with 5 % CO2. For the generation of stable GPR3 -HaloTag/Nluc cells, HEK293A cells grown in T75 flasks were transfected at a confluence of 40 – […]
Absence of mycoplasma contamination was routinely
Transient transfection and plating
Resuspended cells (300,000 cells/mL) were transfected in suspension with a total of 1 μg DNA/mL suspension using PEI (1 mg/ml stock solution; 3 μL PEI solution per μg DNA). […]
Cells mixed with the transfection reagents were seeded onto poly-D-lysine–precoated, 96-well plates and grown for 48 h at 37 °C with 5 % CO2. Stable α2AAR-, β2AR- or GPR3-HaloTag/Nluc expressing cells were seeded 24 h before the experi-ment at a density of 800,000 cells/mL into white 96-well plates. To monitor changes in BRET in with conformational GPCR […]
experiment. White plates were used for BRET and luminescence measurements, black plates for FRET experiments and trans-parent plates for absorbance-based quantification of receptor surface expression levels.

T1 sequence (P46089 with tags, fused parts or gaps with the stated changes): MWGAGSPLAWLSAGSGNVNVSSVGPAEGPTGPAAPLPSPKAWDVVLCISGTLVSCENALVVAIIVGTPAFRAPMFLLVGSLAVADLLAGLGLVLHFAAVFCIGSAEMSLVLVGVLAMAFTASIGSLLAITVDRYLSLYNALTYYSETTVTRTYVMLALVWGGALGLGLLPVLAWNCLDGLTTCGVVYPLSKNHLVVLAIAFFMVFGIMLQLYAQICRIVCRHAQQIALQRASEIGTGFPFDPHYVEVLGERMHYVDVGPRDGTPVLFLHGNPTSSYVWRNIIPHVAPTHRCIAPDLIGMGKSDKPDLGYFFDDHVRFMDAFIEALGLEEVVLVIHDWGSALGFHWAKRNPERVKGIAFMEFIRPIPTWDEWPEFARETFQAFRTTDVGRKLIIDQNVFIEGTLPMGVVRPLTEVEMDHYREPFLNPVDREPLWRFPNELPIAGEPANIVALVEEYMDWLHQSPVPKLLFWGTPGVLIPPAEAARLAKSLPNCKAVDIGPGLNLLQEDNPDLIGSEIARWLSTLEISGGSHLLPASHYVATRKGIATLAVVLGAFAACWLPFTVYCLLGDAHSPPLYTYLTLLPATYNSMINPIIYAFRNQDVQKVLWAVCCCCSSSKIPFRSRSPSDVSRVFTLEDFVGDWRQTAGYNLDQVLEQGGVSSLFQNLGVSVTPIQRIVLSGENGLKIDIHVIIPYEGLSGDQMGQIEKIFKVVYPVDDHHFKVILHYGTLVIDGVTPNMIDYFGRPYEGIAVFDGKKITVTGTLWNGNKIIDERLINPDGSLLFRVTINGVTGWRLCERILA

Row | effect of preincubation on OEA and oleamide potency in GPR3 conformation assay (30 µM preincubation) | EC50 [µM] | Structure (SMILES)
1 | reduced potency of OEA, but not oleamide | 5 | N=c1n(Cc2ccccc2)c2ccccc2n1CC1CC1 [compound 33]
2 | – | 25 | N=c1n(Cc2ccccc2)c2ccccc2n1CC(O)COc1ccc(Cl)cc1 (stereo not shown) [compound 52]
3 | – | 85 | Cc1ccc(NC(=O)CN2CCN(C(=O)CCc3ccc(Cl)cc3)CC2)cc1 [compound 115]
